From patent publication US6653478B2, “Substituted benzimidazol-2-ones as vasopressin receptor antagonists and neuropeptide Y modulators” (Ortho-McNeil Pharmaceutical, Inc., priority 2000, dated 2003) come the findings set out here.

Sequence of human V2 receptor (P30518 whole entry): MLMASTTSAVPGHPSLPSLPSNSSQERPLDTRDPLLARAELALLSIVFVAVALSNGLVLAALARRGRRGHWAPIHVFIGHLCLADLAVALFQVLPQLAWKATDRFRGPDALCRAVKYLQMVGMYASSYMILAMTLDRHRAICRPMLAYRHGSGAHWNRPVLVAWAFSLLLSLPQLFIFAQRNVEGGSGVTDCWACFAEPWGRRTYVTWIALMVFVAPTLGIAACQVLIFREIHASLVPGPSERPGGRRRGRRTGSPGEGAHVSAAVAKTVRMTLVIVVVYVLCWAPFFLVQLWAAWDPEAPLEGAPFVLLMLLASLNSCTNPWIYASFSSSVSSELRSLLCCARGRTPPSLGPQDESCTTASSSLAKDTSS
Sequence of human V1a receptor (P37288 whole entry): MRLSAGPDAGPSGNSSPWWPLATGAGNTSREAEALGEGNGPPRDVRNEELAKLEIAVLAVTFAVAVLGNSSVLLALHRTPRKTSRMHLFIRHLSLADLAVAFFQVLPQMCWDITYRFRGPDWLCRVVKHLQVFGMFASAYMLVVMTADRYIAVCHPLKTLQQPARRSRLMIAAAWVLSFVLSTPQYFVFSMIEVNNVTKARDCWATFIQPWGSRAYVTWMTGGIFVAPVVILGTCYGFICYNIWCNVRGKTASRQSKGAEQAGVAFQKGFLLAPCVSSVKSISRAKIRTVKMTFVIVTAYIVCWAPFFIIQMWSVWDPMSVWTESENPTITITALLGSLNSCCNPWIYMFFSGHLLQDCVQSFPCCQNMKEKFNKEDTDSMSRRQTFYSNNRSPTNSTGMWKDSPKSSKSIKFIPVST

The first test concerns the target human V2 receptor (Homo sapiens, UniProt P30518). Kind of test: V2 binding assay (3H-AVP displacement, HEK-293 membranes). Also noted: expressed in transfected cells; host or cells: HEK-293 (membranes). The conditions noted are these: 1.0 μM compound; read-out: V2@1.0, % Inh. As for the experimental part: (§1) V1a, V1b or V2 Binding Assay
(§2) Receptor binding studies were performed using recombinant human V1a, V1b or V2 receptors. Cellular membranes were harvested from HEK-293 cells transfected to express either the V1a, V1b or V2 receptors. Compounds were evaluated for their ability to displace ^3H-arginine vasopressin (^3H-AVP; specific activity 40-87 Ci/mmol; NEN Life Sciences, Boston, Mass.). Compounds were solubilized in dimethylsulfoxide (DMSO) and diluted to working concentration of 10% DMSO with assay buffer (50 mM Tris, 5 mM MgCl2, 0.1% BSA, pH 7.5). Assay buffer was supplemented with several protease inhibitors (1 mM Pefabloc, 5 μg/ml aprotinin/leupeptin/pepstatin A, 50 μg/ml bacitracin; Sigma Chemical, St. Louis, Mo.). Non-specific binding was determined using 1.25 μM arginine vasopressin (AVP; Peninsula Labs, Belmont, Calif.). Assay reagents and test compounds were added to 96-well round bottom polypropylene plates (145 μl buffer, 5 μl compound in 10% DMSO, 25 μl buffer containing 10,000 cpm tracer, 25 μl cell membrane). After incubation for 1 hour at room temperature, the well contents were aspirated across a Unifilter GF/C plate (Packard Instrument, Downers Grove, Ill.) which had been presoaked in 0.3% polyethyleneimine to prevent peptide sticking. The wells were washed repeatedly with cold saline containing 0.05% Tween 20. The plate was then dried and 25 μl Microscint-20 cocktail (Packard Instruments) added to each well. The plates were sealed and counted on a TopCount scintillation counter (Packard Instruments) using quench correction.
Regarding `CC(NC(=S)N1CCC(n2c(=O)n(CCCN3CCCCC3)c3ccccc32)CC1)c1ccc(F)cc1` (stereo not shown) [Compound 137], the inhibition at 1 µM is 0%.
For `CC(C)c1ccccc1NC(=O)N1CCC(n2c(=O)n(CCCN3CCCCC3)c3ccccc32)CC1` [Compound 138], the inhibition at 1 µM is 0%.
`O=c1n(CCCN2CCC2)c2ccccc2n1C1CCN(C(=S)NC(c2ccccc2)c2ccccc2)CC1` [Compound 140]: the inhibition at 1 µM is 0%.
In the case of `O=c1n(CCCN2CCCCCC2)c2ccccc2n1C1CCN(C(=S)NC(c2ccccc2)c2ccccc2)CC1` [Compound 141], the inhibition at 1 µM was 0%.
`O=c1n(CCCN2CCCCCCC2)c2ccccc2n1C1CCN(C(=S)NC(c2ccccc2)c2ccccc2)CC1` [Compound 142]: the inhibition at 1 µM was 4%.
In the case of `O=c1n(CCCN2CC=CCC2)c2ccccc2n1C1CCN(C(=S)NC(c2ccccc2)c2ccccc2)CC1` [Compound 143], the inhibition at 1 µM was determined as 8%.
As for `CN1CCN=C1NCCCn1c(=O)n(C2CCN(C(=S)NC(c3ccccc3)c3ccccc3)CC2)c2ccccc21` [Compound 144], the inhibition at 1 µM amounted to 2%.
As for `CC(CN1CCCCC1)Cn1c(=O)n(C2CCN(C(=S)NC(c3ccccc3)c3ccccc3)CC2)c2ccccc21` (stereo not shown) [Compound 146], the inhibition at 1 µM came to 0%.
`CC(CN1CCCCC1)Cn1c(=O)n(C2CCN(C(=O)NC(c3ccccc3)c3ccccc3)CC2)c2ccccc21` (stereo not shown) [Compound 147]: the inhibition at 1 µM was 1%.
As for `CC(CN1CCCC1)Cn1c(=O)n(C2CCN(C(=S)NC(c3ccccc3)c3ccccc3)CC2)c2ccccc21` (stereo not shown) [Compound 148], the inhibition at 1 µM was found to be 1%.
Turning to `CC(CN1CCCC1)Cn1c(=O)n(C2CCN(C(=O)NC(c3ccccc3)c3ccccc3)CC2)c2ccccc21` (stereo not shown) [Compound 149], the inhibition at 1 µM worked out at 0%.
As to `O=C(Cc1ccc(N2CCCC2)cc1)n1c(=O)n(C2CCN(C(=S)NC(c3ccccc3)c3ccccc3)CC2)c2ccccc21` [Compound 150], the inhibition at 1 µM turned out to be 0%.
In the case of `Cc1ccccc1CNC(=O)N1CCC(n2c(=O)n(CCCN3CCCCC3)c3ccccc32)CC1` [Compound 151], the inhibition at 1 µM turned out to be 0%.
As to `O=C(NC1c2ccccc2-c2ccccc21)N1CCC(n2c(=O)n(CCCN3CCCCC3)c3ccccc32)CC1` [Compound 152], the inhibition at 1 µM was found to be 2%.
On to `O=c1n(CCCN2CCCCC2)c2ccccc2n1C1CCN(C(=S)Nc2ccc(N3CCOCC3)cc2)CC1` [Compound 153], for which the inhibition at 1 µM was determined as 0%.

A further test concerns the target human V1a receptor (Homo sapiens, UniProt P37288). Kind of test: V1a binding assay (3H-AVP displacement, HEK-293 membranes). The arrangement: expressed in transfected cells; host or cells: HEK-293 (membranes).
Settings: not given
As for the experimental part:
as §1, §2
What is called IC50 is the concentration at which inhibition is half-maximal. Low values mean greater potency, high ones weaker potency. In turn, `CC(NC(=S)N1CCC(n2c(=O)n(CCCN3CCCCC3)c3ccccc32)CC1)c1ccc(F)cc1` (stereo not shown) [Compound 137] showed a 50% inhibitory concentration (IC50) of 91 nM. This counts as double-digit nanomolar.
Consider `O=c1n(CCCN2CCCCCCC2)c2ccccc2n1C1CCN(C(=S)NC(c2ccccc2)c2ccccc2)CC1` [Compound 142], for which the IC50 amounted to 68 nM.
The compound `O=c1n(CCCN2CC=CCC2)c2ccccc2n1C1CCN(C(=S)NC(c2ccccc2)c2ccccc2)CC1` [Compound 143] came in with a half-maximal inhibitory concentration (IC50) of 41 nM.
For `CN1CCN=C1NCCCn1c(=O)n(C2CCN(C(=S)NC(c3ccccc3)c3ccccc3)CC2)c2ccccc21` [Compound 144], the half-inhibitory concentration (IC50) is 395 nM.
On to `CC(CN1CCCCC1)Cn1c(=O)n(C2CCN(C(=O)NC(c3ccccc3)c3ccccc3)CC2)c2ccccc21` (stereo not shown) [Compound 147], for which the half-inhibitory concentration (IC50) was 440 nM.
As for `CC(CN1CCCC1)Cn1c(=O)n(C2CCN(C(=S)NC(c3ccccc3)c3ccccc3)CC2)c2ccccc21` (stereo not shown) [Compound 148], the half-inhibitory concentration (IC50) is 53 nM.
On to `CC(CN1CCCC1)Cn1c(=O)n(C2CCN(C(=O)NC(c3ccccc3)c3ccccc3)CC2)c2ccccc21` (stereo not shown) [Compound 149], for which the IC50 came to 42 nM. The IC50 values of the last two compounds are within 1.5-fold of each other.
Consider `O=C(NC1c2ccccc2-c2ccccc21)N1CCC(n2c(=O)n(CCCN3CCCCC3)c3ccccc32)CC1` [Compound 152], for which the IC50 was found to be 230 nM.

The same test, now with this note: 0.5 μM compound; read-out: V1a % Inh @0.5.
On to `CC(CN1CCCCC1)Cn1c(=O)n(C2CCN(C(=S)NC(c3ccccc3)c3ccccc3)CC2)c2ccccc21` (stereo not shown) [Compound 146], for which the inhibition at 0.5 µM was 15%.

Staying with this test, now noted: 1.0 μM compound; read-out: V1a@1.0, % Inh.
As to `CC(C)c1ccccc1NC(=O)N1CCC(n2c(=O)n(CCCN3CCCCC3)c3ccccc32)CC1` [Compound 138], the inhibition at 1 µM was 58%.
Take `O=c1n(CCCN2CCC2)c2ccccc2n1C1CCN(C(=S)NC(c2ccccc2)c2ccccc2)CC1` [Compound 140]: the inhibition at 1 µM amounted to 59%.
The same measure, in the same setting: the value for `O=c1n(CCCN2CCCCCC2)c2ccccc2n1C1CCN(C(=S)NC(c2ccccc2)c2ccccc2)CC1` [Compound 141] was 83%; that for `CC(CN1CCCCC1)Cn1c(=O)n(C2CCN(C(=S)NC(c3ccccc3)c3ccccc3)CC2)c2ccccc21` (stereo not shown) [Compound 146] was 85%.
For `O=C(Cc1ccc(N2CCCC2)cc1)n1c(=O)n(C2CCN(C(=S)NC(c3ccccc3)c3ccccc3)CC2)c2ccccc21` [Compound 150], the inhibition at 1 µM came out at 38%.
In the case of `Cc1ccccc1CNC(=O)N1CCC(n2c(=O)n(CCCN3CCCCC3)c3ccccc32)CC1` [Compound 151], the inhibition at 1 µM is 62%.
Regarding `O=c1n(CCCN2CCCCC2)c2ccccc2n1C1CCN(C(=S)Nc2ccc(N3CCOCC3)cc2)CC1` [Compound 153], the inhibition at 1 µM amounted to 0%.

A further test concerns the target T1, human V1b receptor (Homo sapiens, UniProt P47901).
T1 sequence (P47901 1-424): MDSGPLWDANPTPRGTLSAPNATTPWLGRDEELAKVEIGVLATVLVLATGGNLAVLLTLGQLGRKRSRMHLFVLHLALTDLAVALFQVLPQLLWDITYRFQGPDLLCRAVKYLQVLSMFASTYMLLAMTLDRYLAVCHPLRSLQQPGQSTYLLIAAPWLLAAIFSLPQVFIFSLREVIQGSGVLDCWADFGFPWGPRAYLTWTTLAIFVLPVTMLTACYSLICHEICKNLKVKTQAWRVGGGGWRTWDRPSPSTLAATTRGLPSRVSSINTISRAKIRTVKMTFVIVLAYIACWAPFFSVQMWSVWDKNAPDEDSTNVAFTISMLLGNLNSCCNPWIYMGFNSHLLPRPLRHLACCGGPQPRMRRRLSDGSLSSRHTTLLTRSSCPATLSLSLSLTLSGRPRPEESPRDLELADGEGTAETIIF
Kind of test: V1b binding assay (3H-AVP displacement, HEK-293 membranes). Also noted: expressed in transfected cells; host or cells: HEK-293 (membranes). The conditions noted are these: 1.0 μM compound; read-out: V1b@1.0, % Inh. As to the method:
as §1, §2
Turning to `CC(NC(=S)N1CCC(n2c(=O)n(CCCN3CCCCC3)c3ccccc32)CC1)c1ccc(F)cc1` (stereo not shown) [Compound 137], the inhibition at 1 µM was found to be 41%.
Take `CC(C)c1ccccc1NC(=O)N1CCC(n2c(=O)n(CCCN3CCCCC3)c3ccccc32)CC1` [Compound 138]: the inhibition at 1 µM was found to be 21%.
On the same count and under the same terms, the value for `O=c1n(CCCN2CCC2)c2ccccc2n1C1CCN(C(=S)NC(c2ccccc2)c2ccccc2)CC1` [Compound 140] was 28%; that for `O=c1n(CCCN2CCCCCC2)c2ccccc2n1C1CCN(C(=S)NC(c2ccccc2)c2ccccc2)CC1` [Compound 141] was 29%; that for `O=c1n(CCCN2CCCCCCC2)c2ccccc2n1C1CCN(C(=S)NC(c2ccccc2)c2ccccc2)CC1` [Compound 142] was 56%.
Take `O=c1n(CCCN2CC=CCC2)c2ccccc2n1C1CCN(C(=S)NC(c2ccccc2)c2ccccc2)CC1` [Compound 143]: the inhibition at 1 µM was 65%.
Regarding `CN1CCN=C1NCCCn1c(=O)n(C2CCN(C(=S)NC(c3ccccc3)c3ccccc3)CC2)c2ccccc21` [Compound 144], the inhibition at 1 µM was 31%.
Turning to `CC(CN1CCCCC1)Cn1c(=O)n(C2CCN(C(=S)NC(c3ccccc3)c3ccccc3)CC2)c2ccccc21` (stereo not shown) [Compound 146], the inhibition at 1 µM stood at 33%.
`CC(CN1CCCCC1)Cn1c(=O)n(C2CCN(C(=O)NC(c3ccccc3)c3ccccc3)CC2)c2ccccc21` (stereo not shown) [Compound 147]: the inhibition at 1 µM was determined as 27%.
In the case of `CC(CN1CCCC1)Cn1c(=O)n(C2CCN(C(=S)NC(c3ccccc3)c3ccccc3)CC2)c2ccccc21` (stereo not shown) [Compound 148], the inhibition at 1 µM was found to be 40%.
With `CC(CN1CCCC1)Cn1c(=O)n(C2CCN(C(=O)NC(c3ccccc3)c3ccccc3)CC2)c2ccccc21` (stereo not shown) [Compound 149], the inhibition at 1 µM worked out at 44%.
As to `O=C(Cc1ccc(N2CCCC2)cc1)n1c(=O)n(C2CCN(C(=S)NC(c3ccccc3)c3ccccc3)CC2)c2ccccc21` [Compound 150], the inhibition at 1 µM came to 16%.
With `Cc1ccccc1CNC(=O)N1CCC(n2c(=O)n(CCCN3CCCCC3)c3ccccc32)CC1` [Compound 151], the inhibition at 1 µM amounted to 37%.
Turning to `O=C(NC1c2ccccc2-c2ccccc21)N1CCC(n2c(=O)n(CCCN3CCCCC3)c3ccccc32)CC1` [Compound 152], the inhibition at 1 µM stood at 38%.
With `O=c1n(CCCN2CCCCC2)c2ccccc2n1C1CCN(C(=S)Nc2ccc(N3CCOCC3)cc2)CC1` [Compound 153], the inhibition at 1 µM was determined as 0%.
